The term MIC denotes the smallest concentration in the dilution series that meets the test's criterion for growth inhibition.

These results are taken from ChEMBL document CHEMBL5036338, “Structural Insights into the Inhibition of Undecaprenyl Pyrophosphate Synthase from Gram-Positive Bacteria” (2021).

Activity calls are given as the source filed them.

In assay [1] the test system is Staphylococcus aureus. Briefly: Synergistic antibacterial activity against community acquired methicillin resistant Staphylococcus aureus USA300 incubated for 18 hrs by checkerboard broth microdilution assay. The class given is functional.
For assay [2], the system named is Staphylococcus aureus. Briefly: Synergistic antibacterial activity against community acquired methicillin resistant Staphylococcus aureus USA300 assessed as fractional inhibitory concentration incubated for 18 hrs by checkerboard broth microdilution assay. The class given is functional. In general terms: Broth dilution looks for growth in wells or tubes with falling amounts of substance.

For assay [3], the system named is Staphylococcus aureus. Put plainly: Synergistic antibacterial activity against community acquired methicillin resistant Staphylococcus aureus USA300 assessed as fractional inhibitory concentration index in presence of cefuroxime incubated for 18 hrs by checkerboard broth microdilution assay. The class given is functional.
The test system of assay [4] is Staphylococcus aureus. Briefly: Synergistic antibacterial activity against community acquired methicillin resistant Staphylococcus aureus USA300 assessed as potentiation of cefuroxime-induced antibacterial activity by measuring cefuroxime fractional inhibitory concentration incubated for 18 hrs by checkerboard broth microdilution assay. The class given is functional.

Assay [5] concerns Staphylococcus aureus. Put plainly: Synergistic antibacterial activity against community acquired methicillin resistant Staphylococcus aureus USA300 assessed as potentiation of cefuroxime-induced antibacterial activity by measuring cefuroxime MIC incubated for 18 hrs by checkerboard broth microdilution assay. The class given is functional.
The test system of assay [6] is Staphylococcus aureus. Put plainly: Inhibition of Staphylococcus aureus UPPS using FPP and IPP as substrates preincubated for 20 mins followed by substrate addition.

As for `CCN(CC)CCOc1ccc(/C(=C(/Cl)c2ccccc2)c2ccccc2)cc1` [ENCLOMIPHENE], the minimum inhibitory concentration (MIC) in the assay on Staphylococcus aureus [1] turned out to be 16 µg/mL; with Staphylococcus aureus [5] it was 256 µg/mL. Moreover, the values for the FIC with Staphylococcus aureus [2] and in the assay on Staphylococcus aureus [4] were 0.25 and 0.063, respectively. In addition, in the assay with Staphylococcus aureus [3], the “fractional inhibitory concentration index (FICI)” value is 0.313.
The matching figures for `CCc1cc(N2CCCCCCC2)n2ncc(-c3ccc(F)cc3)c2n1`: greater than 128 µg/mL, greater than 32 µg/mL, 0.125, 0.0625 and 0.1875.
The matching figures for `Cc1cc(N2CCCCCCC2)n2ncc(-c3ccc(F)cc3)c2n1`: greater than 128 µg/mL, greater than 32 µg/mL, 0.0312, 0.0312 and 0.0625.
Consider `Cc1cc(N2CCOCC2)n2ncc(-c3ccc(F)cc3)c2n1`, for which the values for the minimum inhibitory concentration (MIC) in the assay with Staphylococcus aureus [1] and in the assay on Staphylococcus aureus [5] were greater than 128 µg/mL and greater than 32 µg/mL, respectively. Also, the FIC is on record as 0.03125 in the assay with Staphylococcus aureus [2] and 0.125 in the assay with Staphylococcus aureus [4]. In the assay with Staphylococcus aureus [3], the “fractional inhibitory concentration index (FICI)” value was determined as 0.156.
On the same counts, the results for `Cc1cc(N2CCCCCC2)n2ncc(-c3cccc(F)c3)c2n1` are greater than 128 µg/mL, greater than 32 µg/mL, 0.0625, 0.0312 and 0.0937.
Turning to `CCCc1cc(N2CCCCCC2)n2ncc(-c3ccc(F)cc3)c2n1`, the MIC with Staphylococcus aureus [1] was greater than 128 µg/mL; in the assay with Staphylococcus aureus [5], greater than 32 µg/mL. The FIC in the assay on Staphylococcus aureus [2] and with Staphylococcus aureus [4] was 0.0312 throughout. The “fractional inhibitory concentration index (FICI)” value with Staphylococcus aureus [3] is reported as 0.0625.
Take `Cc1cc(N2CCCCCC2)n2ncc(-c3ccc(F)cc3)c2n1`: the inhibition result with Staphylococcus aureus [6] is “Active”. Moreover, the figures for the MIC in the assay on Staphylococcus aureus [1] and with Staphylococcus aureus [5] were greater than 128 µg/mL and greater than 32 µg/mL, respectively. In addition, the FIC is given as 0.0625 in the assay on Staphylococcus aureus [2] and 0.0156 in the assay on Staphylococcus aureus [4]. The “fractional inhibitory concentration index (FICI)” value in the assay with Staphylococcus aureus [3] is 0.0781.
`CCc1cc(N2CCCCCC2)n2ncc(-c3ccc(F)cc3)c2n1`: the MIC was greater than 128 µg/mL in the assay on Staphylococcus aureus [1] and greater than 32 µg/mL in the assay with Staphylococcus aureus [5]. Moreover, the values for the FIC in the assay with Staphylococcus aureus [2] and in the assay with Staphylococcus aureus [4] were 0.0312 and 0.0156, respectively. Further, the “fractional inhibitory concentration index (FICI)” value in the assay on Staphylococcus aureus [3] came out at 0.0468.
